Laboratory results taken from patent publication EP4682145A1, “BENZOHETEROCYCLIC COMPOUND, AND PREPARATION METHOD THEREFOR AND USE THEREOF” (Cascade Pharmaceuticals, Inc., priority 2023, dated 2024).

What was measured:
[1] = Pharmacokinetic evaluation in ICR mice (intravenous and gavage); format: in vivo; conditions: for CL_obs / Vss_obs / half-life: Intravenous Administration (5 mg/kg); for bioavailability: gavage 10 mg/kg versus intravenous 5 mg/kg
Protocol: The bioavailability and pharmacokinetic behavior of the compounds were evaluated in mice. 6 male ICR mice with similar body weights were selected, among which 3 mice were administered a single gavage dose of 10 mg/kg, and the other 3 mice were intravenously administered a single dose of 5 mg/kg. Blood samples were collected at 5 minutes (intravenous administration), 15 minutes, 30 minutes, 1 hour, 2 hours, 4 hours, and 7 hours after administration. The plasma samples were analyzed for concentration by LCMS/MS, and the pharmacokinetic parameters of the compounds were analyzed using the PKSolver free tool and non-compartmental analysis (NCA) software.
Experimental animals: Each compound test group included 6 healthy male ICR mice, weighing 18-25 g, purchased from Charles River, which were randomly divided into 2 groups with 3 mice each.
Preparation of formulations: A certain amount of the compound was weighed and added to 2% DMSO + 15% Solutol + 83% physiological saline to form a clear solution.
Dosage: ICR mice were fasted overnight and administered the compound at a dose of 10 mg/kg via gavage or 5 mg/kg via intravenous injection. The dosing volumes for gavage and intravenous administration were 10 mL/kg and 5 mL/kg, respectively. Uniform feeding was conducted 2 hours after administration.
Sample collection: Approximately 30 µL of blood was collected from the great saphenous vein at 5 minutes (intravenous administration), 15 minutes, 30 minutes, 1 hour, 2 hours, 4 hours, and 7 hours after administration. The blood was placed into commercially available tubes containing K2-EDTA. The blood samples were then centrifuged at 4°C and 4600 rpm for 5 minutes to obtain plasma samples. All plasma samples were rapidly frozen on dry ice and maintained at -70°C until LCMS/MS analysis was performed.
Sample preparation: 10 µL of plasma sample was aspirated and precipitated with a methanol solution containing 50 nmol/L of α-naphthoflavone (internal standard). The mixture was thoroughly mixed and centrifuged at 4°C and 14000 rpm for 5 minutes. Then, 75 µL of the supernatant was mixed with 75 µL of methanol for LCMS/MS analysis.

human FFAR1 (GPR40) = molecular target: T1, human FFAR1 (GPR40) (Homo sapiens, UniProt O14842); assay: NFAT-RE-based reporter gene activity assay (Dual-Glo luciferase) for GPR40 agonistic activity in co-transfected HEK293T cells; format: cell-based; conditions: 4-hour treatment
T1 construct: Flag; expressed in transfected cells; host or cells: HEK293T
T1 sequence (O14842 whole entry): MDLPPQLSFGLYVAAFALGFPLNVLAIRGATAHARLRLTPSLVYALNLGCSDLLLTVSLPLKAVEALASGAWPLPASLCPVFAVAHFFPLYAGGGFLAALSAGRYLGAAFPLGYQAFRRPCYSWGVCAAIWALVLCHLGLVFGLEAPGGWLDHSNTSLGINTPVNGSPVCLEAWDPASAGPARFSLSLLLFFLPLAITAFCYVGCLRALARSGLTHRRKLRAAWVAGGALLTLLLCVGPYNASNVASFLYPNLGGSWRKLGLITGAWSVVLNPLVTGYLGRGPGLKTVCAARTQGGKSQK
Method in brief: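 HEK293T cells co-transfected with human FFAR1, NFAT-RE firefly luciferase and TK-Renilla plasmids; 24 h later treated 4 h with 10 half-log compound dilutions from 1 µM. Firefly/Renilla ratio normalised to DMSO; EC50 from four-parameter fit.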

C57BL6/J mice = assay: In vivo pharmacodynamic assay for non-alcoholic fatty liver disease (high-fat, high-cholesterol, high-fructose diet mice); conditions: 1 mpk oral gavage once daily for 28 days
Protocol: Normal male C57BL6/J mice ([…]) were fed a high-fat, high-cholesterol, high-fructose diet (D09100310, Research Diets) for 20 weeks. Based on body weight and biochemical data, the mice were randomly divided into groups, with 6 mice per group. The compound 169 (0.03, 0.1, and 0.6 mg/kg) was administered via oral gavage. The positive control was MGL3196 (1 mg/kg), and the blank control group consisted of mice of the same strain and age fed a normal diet for the same duration. The blank control and model control groups were given the vehicle (15% solutol + 85% DDW), totaling 6 groups. Administration was performed once daily for 28 days. After overnight fasting, on day 29 at the experimental endpoint, blood was collected from the heart after CO2 euthanasia. Serum ALT and AST biochemical indicators were measured, and liver tissue was harvested for hepatic hydroxyproline content determination.
Blood was collected using anticoagulant-free tubes, allowed to stand at room temperature for 30 minutes, and then centrifuged at 4000 rpm for 10 minutes to separate serum, which was tested by Dian Diagnostics. Approximately 50 mg of liver tissue was taken from each mouse and tested according to the hydroxyproline assay kit method (Nanjing Jiancheng, Cat. No.: A030-2-1).
Data were expressed as mean ± standard deviation. One-way ANOVA was employed for statistical analysis, with p < 0.05 considered statistically significant.

[2] = mouse, plasma, po, Gavage Administration (10 mg/kg)
[3] = mouse, plasma, po, Gavage Administration (10 mg/kg), read-out: AUC0-7 h
[4] = male, ICR, mouse, plasma, po, Gavage Administration (10 mg/kg)
[5] = numeric values of positive controls

SMILES | EC50 (human FFAR1 (GPR40)) [nM] | Efficacy (%) (human FFAR1 (GPR40); class symbols) | other results
COc1cccc(N2CCC(c3oc4cc([C@@H](CC(=O)O)C5CC5)ccc4c3-c3cccc(C(C)(C)C)c3)CC2)c1 [Compound 12] | 10 to 100 | †† (150 ≥ Efficacy (%) > 100) | CL_obs [1]: 1.9 mL/min/kg; Vss_obs [1]: 0.52 L/kg; half-life ([1]; mouse, plasma): 5.02 h; Cmax [1, 2]: 6580 ng/mL; Tmax [1, 2]: 2 h; AUC(0-t) at 7 h [1, 3]: 38000 ng·h/mL; bioavailability ([1]; mouse, plasma, po): 44.6%
COc1cccc(N2CCC(c3oc4cc([C@@H](CC(=O)O)C5CC5)ccc4c3-c3cnn(C(C)(C)C)c3)CC2)c1 [Compound 38] | 10 to 100 | ††† (Efficacy (%) > 150) | CL_obs [1]: 2.3 mL/min/kg; Vss_obs [1]: 0.405 L/kg; half-life ([1]; mouse, plasma): 2.41 h; Cmax [1, 2]: 8600 ng/mL; Tmax [1, 2]: 2 h; AUC(0-t) at 7 h [1, 3]: 55400 ng·h/mL; bioavailability ([1]; mouse, plasma, po): 77.4%
COc1ccc(F)c(N2CCC(c3oc4cc([C@@H](CC(=O)O)C5CC5)ccc4c3-c3cnn(C(C)(C)C)c3)CC2)c1 [Compound 89] | 100 to 500 | †† (150 ≥ Efficacy (%) > 100) | CL_obs [1]: 1.3 mL/min/kg; Vss_obs [1]: 0.546 L/kg; half-life ([1]; male, ICR, mouse, plasma): 5.46 h; bioavailability ([1]; male, ICR, mouse, plasma, oral): 73.7%; Cmax [1, 4]: 11100 ng/mL; Tmax [1, 4]: 2 h; AUC(0-t) ([1]; male, ICR, mouse, plasma, po, Gavage Administration (10 mg/kg), read-out: AUC0-7 h): 92200 ng·h/mL
COc1ccc(F)c(N2CCC(c3oc4cc([C@@H](CC(=O)O)C5CC5)ccc4c3-c3cccc(C(C)(C)C)c3)CC2)c1 [Compound 166] | 10 to 100 | †† (150 ≥ Efficacy (%) > 100) | CL_obs [1]: 1.6 mL/min/kg; Vss_obs [1]: 0.668 L/kg; half-life ([1]; mouse, plasma): 6.7 h; Cmax [1, 2]: 4950 ng/mL; Tmax [1, 2]: 4 h; AUC(0-t) at 7 h [1, 3]: 48100 ng·h/mL; bioavailability ([1]; mouse, plasma, po): 48%
COc1cccc(N2CCC(c3oc4cc([C@@H](CC(=O)O)C5CC5)ccc4c3C(OCC(C)C)c3ccccc3)CC2)c1 (some centres unmarked) [Compound 426] | 10 to 100 | ††† (Efficacy (%) > 150) | 
COc1cccc(N2CCC(c3oc4cc([C@@H](CC(=O)O)C5CC5)ccc4c3C(OCC(C)C)c3ccc(C)cc3)CC2)c1 (some centres unmarked) [Compound 427] | 100 to 500 | ††† (Efficacy (%) > 150) | 
COc1cccc(N2CCC(c3oc4cc([C@@H](CC(=O)O)C5CC5)ccc4c3C(OCC(C)C)c3cccc(C)c3)CC2)c1 (some centres unmarked) [Compound 428] | 100 to 500 | †† (150 ≥ Efficacy (%) > 100) | 
COc1cccc(N2CCC(c3oc4cc([C@@H](CC(=O)O)C5CC5)ccc4c3C(OCC(C)C)c3ccccc3C)CC2)c1 (some centres unmarked) [Compound 429] | 100 to 500 | ††† (Efficacy (%) > 150) | 
COc1cccc(N2CCC(c3oc4cc([C@@H](CC(=O)O)C5CC5)ccc4c3C(OCC(C)C)c3cccc(F)c3)CC2)c1 (some centres unmarked) [Compound 430] | 100 to 500 | ††† (Efficacy (%) > 150) | 
COc1cccc(N2CCC(c3oc4cc([C@@H](CC(=O)O)C5CC5)ccc4c3C(OCC(C)C)c3ccc(F)cc3)CC2)c1 (some centres unmarked) [Compound 431] | 100 to 500 | †† (150 ≥ Efficacy (%) > 100) | 
COc1cccc(N2CCC(c3oc4cc([C@@H](CC(=O)O)C5CC5)ccc4c3C(OCC(C)C)c3ccccc3F)CC2)c1 (some centres unmarked) [Compound 432] | 10 to 100 | ††† (Efficacy (%) > 150) | 
COc1cccc(N2CCC(c3oc4cc([C@@H](CC(=O)O)C5CC5)ccc4c3CNCC(C)(C)C)CC2)c1 [Compound 435] | 10 to 100 | †† (150 ≥ Efficacy (%) > 100) | 
COc1cccc(N2CCC(c3oc4cc([C@@H](CC(=O)O)C5CC5)ccc4c3CNC(=O)C(C)(C)C)CC2)c1 [Compound 436] | > 500 | †† (150 ≥ Efficacy (%) > 100) | 
COc1cccc(N2CCC(c3oc4cc([C@@H](CC(=O)O)C5CC5)ccc4c3CN(C)CC(C)(C)C)CC2)c1 [Compound 438] | 10 to 100 | †† (150 ≥ Efficacy (%) > 100) | 
COc1cccc(N2CCC(c3oc4cc([C@@H](CC(=O)O)C5CC5)ccc4c3C(C)N(C)CC(C)(C)C)CC2)c1 (some centres unmarked) [Compound 439] | 100 to 500 | †† (150 ≥ Efficacy (%) > 100) | 
COc1cccc(N2CCC(c3oc4cc([C@@H](CC(=O)O)C5CC5)ccc4c3CN(CC(C)(C)C)C(C)=O)CC2)c1 [Compound 442] | 100 to 500 | †† (150 ≥ Efficacy (%) > 100) | 
COc1cccc(N2CCC(c3oc4cc([C@@H](CC(=O)O)C5CC5)ccc4c3CN(CC(C)(C)C)c3cccc(Cl)c3)CC2)c1 [Compound 447] | 100 to 500 | †† (150 ≥ Efficacy (%) > 100) | 
COc1cccc(N2CCC(c3oc4cc([C@@H](CC(=O)O)C5CC5)ccc4c3CN(C(=O)C(C)(C)C)c3cccc(Cl)c3)CC2)c1 [Compound 448] | 100 to 500 | †† (150 ≥ Efficacy (%) > 100) | 
COc1cccc(N2CCC(c3oc4cc(C(CC(=O)O)C5CC5)ccc4c3Cc3nnc(C(C)(C)C)o3)CC2)c1 (centres unmarked) [Compound 450] | 100 to 500 | † (100 ≥ Efficacy (%) > 50) | 
CCCCCCCC(C)(C)c1nnc(-c2c(C3CCN(c4cccc(OC)c4)CC3)oc3cc(C(CC(=O)O)C4CC4)ccc23)o1 (centres unmarked) [Compound 451] | 10 to 100 | †† (150 ≥ Efficacy (%) > 100) | 
CCCCCCC(C)(C)c1nnc(-c2c(C3CCN(c4cccc(OC)c4)CC3)oc3cc(C(CC(=O)O)C4CC4)ccc23)o1 (centres unmarked) [Compound 452] | 10 to 100 | †† (150 ≥ Efficacy (%) > 100) | 
CC(C)c1cc(Oc2c(Cl)cc(-n3nc(C#N)c(=O)[nH]c3=O)cc2Cl)n[nH]c1=O [MGL3196, reference compound] |  |  | Hepatic Hydroxyproline (C57BL6/J mice; liver): 173.63 ± 32.06 µg/g; Total Liver Hydroxyproline (µg/liver) (C57BL6/J mice; liver): 313.58±98.24 µg/liver; ALT (U/L) (C57BL6/J mice; serum): 140±63.06 U/L; AST (U/L) (C57BL6/J mice; serum): 242±67.42 U/L
COc1ccc(C(=O)N(CC(C)(C)C)c2cccc(C)n2)c(N2CCC(COc3cc([C@@H](CC(=O)O)C4CC4)ccn3)CC2)c1 [SCO-267, SCO267, reference compound] | 10 to 100 |  | Efficacy (%) (human FFAR1 (GPR40); [5]): 100%
Cc1cc(OCCCS(C)(=O)=O)cc(C)c1-c1cccc(COc2ccc3c(c2)OC[C@H]3CC(=O)O)c1 [TAK875, reference compound] |  |  | Efficacy (%) (human FFAR1 (GPR40); [5]): 65%
